Assay results taken from paper PMC3927067 (Journal of Computer-Aided Molecular Design, 2014).
Several values for one entry are separate records, joined by “and”; a condition that tells them apart may be missing. Equal entries are not always repeated. Where two headings read alike, the source gives them in different places.

Tests used:
preclinical species = test: In vivo sleep promotion
[1] = cited from earlier work
[2] = Brain/plasma ratio, iv infusion study; conditions: rat
hOX1R = target: T1, hOX1R (Homo sapiens, UniProt O43613); test: Orexin 1 receptor binding assay
T1 sequence (O43613 1-425): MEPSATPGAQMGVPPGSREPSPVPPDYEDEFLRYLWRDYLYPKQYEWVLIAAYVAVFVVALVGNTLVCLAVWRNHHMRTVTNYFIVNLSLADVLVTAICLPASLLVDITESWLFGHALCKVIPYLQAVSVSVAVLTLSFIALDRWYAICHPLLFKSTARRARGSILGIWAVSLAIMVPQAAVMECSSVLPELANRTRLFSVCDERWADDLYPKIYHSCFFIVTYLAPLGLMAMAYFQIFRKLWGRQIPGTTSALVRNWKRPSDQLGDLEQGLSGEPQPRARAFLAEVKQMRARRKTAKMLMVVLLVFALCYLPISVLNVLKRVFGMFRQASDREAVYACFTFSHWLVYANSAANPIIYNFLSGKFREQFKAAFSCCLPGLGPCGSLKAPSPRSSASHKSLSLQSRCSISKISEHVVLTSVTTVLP

hOX2R = target: T2, hOX2R (Homo sapiens, UniProt O43614); test: Orexin 2 receptor binding assay
T2 sequence (O43614 1-444): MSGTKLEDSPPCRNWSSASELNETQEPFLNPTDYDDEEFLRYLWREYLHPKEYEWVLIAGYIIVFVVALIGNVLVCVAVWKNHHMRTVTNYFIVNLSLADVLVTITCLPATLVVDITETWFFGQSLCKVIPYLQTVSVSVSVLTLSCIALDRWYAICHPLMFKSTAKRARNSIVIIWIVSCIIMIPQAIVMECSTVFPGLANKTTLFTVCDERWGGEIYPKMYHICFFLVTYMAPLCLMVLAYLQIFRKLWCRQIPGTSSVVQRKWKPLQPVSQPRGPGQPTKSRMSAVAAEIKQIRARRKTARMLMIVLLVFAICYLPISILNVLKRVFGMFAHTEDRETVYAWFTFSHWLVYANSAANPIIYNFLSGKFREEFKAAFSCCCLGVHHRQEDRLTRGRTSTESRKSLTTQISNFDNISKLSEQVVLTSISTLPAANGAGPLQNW

[3] = design: method as in PMID 20565075; conditions: cited from earlier work
[4] = NMR solution conformation (NOE); format: physicochemical; conditions: CD3OD at −40 °C
Excerpt: Although the molecular and quantum mechanical methods were in agreement with one another, we sought additional experimental methods to either support or refute our initial computational findings. We first determined the unbound, small-molecule crystal structure. The RMSD between the computationally derived conformation depicted in Fig. 1 and the X-ray structure was 0.75 Å (non-hydrogen atoms). Additionally, no differences between the geometries of the nitrogen atoms of the seven-membered ring nor the amide bond were observed between the theoretically and experimentally derived conformations. Even though there was no computed difference between the conformations (Table 1) when implicit solvent was invoked, we sought to experimentally confirm that the solution state conformation was consistent with the aforementioned theoretical and crystal structure experiments. There was again excellent agreement from NMR spectroscopy applied to compound 1, with NOE evidence for the F2F interaction in the major rotamer. In fact, two F2F rotamers in the ensemble accounted for 82 % of the total solution conformation (CD3OD at −40 °C), each with a motif similar to that found by computational analysis and X-ray structure.

[5] = mean of replicates, read-out: OX1R Ki
[6] = mean of replicates, read-out: OX2R Ki
[7] = supplement, individual replicates, Ki and nM taken from Table 3, read-out: OX2R individual replicate
[8] = supplement, unlabelled mean below the replicates, Ki and nM taken from b8/Table 3, read-out: OX2R mean of replicates
[9] = supplement, individual replicates, Ki and nM taken from Table 3, read-out: OX1R individual replicate
[10] = supplement, unlabelled mean below the replicates, Ki and nM taken from b8/Table 3, read-out: OX1R mean of replicates

Row | SMILES | sleep promotion in vivo (preclinical species) | metabolic issues ([1]; benzoxazole replacing quinazoline ring) | toxicology profile (Toxicology profile) | Kp ([2]; brain and plasma, iv) | CNS penetration ([2]; iv infusion study) | times less active than compound 4 (hOX1R; binding, relative to compound 4, receptor not specified) | Ki (hOX1R; [5]) [nM] | Ki (hOX2R; [6]) [nM] | Ki (hOX2R; [7]) | Ki (hOX2R; [8]) [nM] | Ki (hOX1R; [9]) | Ki (hOX1R; [10]) [nM] | in vivo activity [3] | metabolic liability [1] | share of two F2F rotamers in total solution conformation [4] [%]
1 | Cc1ccc(-n2nccn2)c(C(=O)N2CCN(c3nc4cc(Cl)ccc4o3)CC[C@H]2C)c1 [Compound 7, Suvorexant] | promote sleep in preclinical species in a dose dependent fashion | devoid of the metabolic issues | favorable toxicology profile | 0.6 to 1.2 | CNS penetrant | – | – | – | – | – | – | – | – | – | –
2 | Cc1ccc(-n2nccn2)c(C(=O)N2CC3CC2CCN3c2ncc3cc(F)ccc3n2)c1 (stereo not drawn) [Compound 5] | – | – | – | – | – | > 1,000 times | > 1700 | 2740 | 2800 nM and 2280 nM and 3150 nM | 2740 | – | – | – | – | –
3 | O=C(c1cc(Cl)ccc1-n1nccn1)N1CC2CC(C1)N(c1ncc3cc(F)ccc3n1)C2 (stereo not drawn) [Compound 4] | – | – | – | – | – | – | 0.4 | 0.6 | 0.66 nM and 0.57 nM | 0.615 | 0.43 nM and 0.42 nM | 0.425 | – | – | –
4 | C[C@@H]1CCN(c2ncc3cc(F)ccc3n2)CCN1C(=O)c1cc(Cl)ccc1-n1nccn1 [Compound 6] | – | – | – | – | – | – | 0.6 | 0.2 | 0.19 nM and 0.11 nM | 0.15 | 0.9 nM and 0.31 nM | 0.605 | excellent in vivo activity | metabolic liability | –
5 | Cc1ccc(-n2nccn2)c(C(=O)N2CCCN(c3ncc4ccccc4n3)CC2)c1 [Compound 1] | – | – | – | – | – | – | 1.2 | 0.8 | 0.773 nM and 0.86 nM and 1.01 nM and 0.775 nM and 0.811 nM and 0.65 nM and 0.64 nM and 0.61 nM and 0.57 nM and 0.606 nM and 0.41 nM and 0.72 nM and 0.754 nM and 0.866 nM and 0.905 nM and 0.731 nM and 1.31 nM and 0.954 nM and 0.71 nM | – | 2.2 nM and 0.71 nM and 0.58 nM and 1.3 nM and 0.94 nM and 0.62 nM and 0.54 nM and 2.4 nM and 1.4 nM | 1.2 | – | – | 82
